Consider 16 compounds from US4417052A, “Phenyl-lower-alkyl piperidines and pyrrolidines” (Sterling Drug Inc., priority 1981, dated 1983).

Data set [1] relates to carrageenin-induced foot edema. Kind of data set: inhibition of carrageenin-induced foot edema test (C.E.). The class given is in vivo. The note with it: oral; for inhibition in vivo at 80 µmol/kg: dose 0.08 millimoles/kg; for inhibition in vivo at 4 µmol/kg: dose 0.004 millimoles/kg; for inhibition in vivo at 20 µmol/kg: dose 0.02 millimoles/kg; for inhibition in vivo at 5 µmol/kg: dose 0.005 millimoles/kg. The method, then: (§1) Anti-inflammatory activity was determined using (1) the inhibition of carrageenin-induced foot edema test essentially described by Winter et al., Proc. Soc. Exp. Biol. and Med. 111, 554 (1962) as modified by Van Arman et al., J. Pharmacol. Exptl. Therap. 150, 328 (1965) and (2) a modification of the inhibition of adjuvant-induced arthritis test described by Pierson, J. Chronic Diseases 16, 863 (1963) and Glenn et al., Am. J. Vet. Res. 26, 1180 (1965).
(§2) The N-{2-,3- and 4-[R1 -(phenyl)-C(=X)]-phenyl-lower-alkyl}amines of formulas I, Ia and Ib of the invention have been tested in the carrageenin edema (CE) and adjuvant arthritis (AA) tests and found to have anti-inflammatory activity. For comparative purposes, data obtained in the carrageenin edema test on the reference compound (designated "Ref."), 4[(3-benzoylphenyl)methyl]morpholine, disclosed in French Patent 1,549,342, are also given. All data were obtained on oral administration.
(The carrageenan paw model is a standard test of acute inflammation.)

Data set [2] deals with adjuvant-induced arthritis. Kind of data set: inhibition of adjuvant-induced arthritis test (A.A.). It is filed as in vivo. To be noted: oral; for inhibition in vivo at 324 µmol/kg: dose 0.324 millimoles/kg; for inhibition in vivo at 80 µmol/kg: dose 0.08 millimoles/kg; for inhibition in vivo at 5 µmol/kg: dose 0.005 millimoles/kg; for inhibition in vivo at 20 µmol/kg: dose 0.02 millimoles/kg. The method, then:
as §1, §2

Data set [3] deals with acetylcholine-induced abdominal constriction. Description: acetylcholine-induced abdominal constriction test (Ach). To be noted: for ED50: Mus musculus, read-out: Ach ED50. It is filed as in vivo, mice. The text has this: J. Pharmacol. Chemotherap. 32, 295 (1968); a modification of the anti-bradykinin test, which is also a primary analgesic screening procedure, described by Berkowitz et al., J. Pharmacol. Exp. Therap. 177, 500-508 (1971), Blane et al., J. Pharm. Pharmacol. 19, 367-373 (1967), Botha et al., Eur. J. Pharmacol. 6, 312-321 (1969) and Deffenu et al., J. Pharm. Pharmacol. 18, 135 (1966); the phenyl-p-quinone-induced writhing test, also a primary analgesic screening test, designed to measure the ability of a test agent to prevent phenyl-p-quinone-induced writhing in mice, described by Pearl and Harris, J. Pharmacol. Exptl. Therap. 154, 319-323 (1966); the rat tail flick radiant thermal heat analgesic (agonist) test described by D'Amour and Smith, J. Pharmacol. Exptl. Therap. 72, 74 (1941) as modified by Bass and VanderBrook, J. Am. Pharm. Assoc. Sci. Ed. 41, 569 (1956); and the phenazocine antagonist test, which is designed to measure the ability of a test agent to antagonize the effect of phenazocine in the above-indicated rat tail flick response test, described by Harris and Pierson, J. Pharmacol. Exptl. Therap. 143, 141 (1964).
The ED50 is the calculated Effective Dose in 50% of the test animals. The abbreviations s.c., p.o. and i.p. stand for subcutaneous, peroral and intraperitoneal routes of administration, respectively. The compounds are identified by the Example numbers above where their preparations are described.

Data set [4] deals with herpes simplex virus types 1 and 2. Kind of data set: in vitro anti-viral activity against herpes simplex viruses types 1 and 2 (BSC cell line, monkey kidney). The class given is cell-based. The note with it: read-out: MIC (Minimum Inhibitory Concentration). The method, then:
Monolayers of tissue cultures (BSC, cell line, monkey kidney) were infected with one hundred TCID50 (Tissue Culture Infectious Dose50) of infectious virus. After one hour of virus adsorption, fresh maintenance medium containing various concentrations of the test compounds was added to the monolayers. Cultures were then incubated at 36°-37° C., and after forty-eight and seventy-two hours, cultures were examined microscopically. […] In the presence of an active compound, cells grow normally similar to those in the tissue culture control. Simultaneously with the anti-viral evaluation, the toxicity of each compound was evaluated in separate cultures. Identical concentrations of the test compound were added to the tissue culture monolayers in the absence of virus. Those concentrations of the compound which show toxic effects on the cells were not considered in the anti-viral evaluation.

[5] abbreviates: read-out: C.E. percent inhibition.
[6] abbreviates: dose 0.324 millimoles/kg, read-out: C.E. percent inhibition.
Where [7] appears, read: read-out: A.A. percent inhibition.

The structures appear in SMILES notation. In brackets after ≈: the same amount, converted by molar mass. Where a name gives a salt, the structure may show the parent alone. Read-outs that look alike come from different tables or passages of the source.

On to `CC(C)(CN1CCOCC1)c1cccc(C(=O)c2ccccc2)c1.Cl` [Example 24H, 4-[2,2-dimethyl-2-(3-benzoylphenyl)ethyl]morpholine hydrochloride], for which the inhibition in vivo at 80 µmol/kg in data set [1] (setting [5]) amounted to 0%. Moreover, the inhibition in vivo at 324 µmol/kg in data set [1] (setting [6]) is 22%; in data set [2] (setting [7]), 8%. Also, the “Ach percent inhibition of writhing” value worked out at 7% in data set [3] (dose 25, s.c.); 13% in data set [3] (dose 50, s.c.); 73% in data set [3] (dose 150, s.c.).

In general, ED50 refers to the dose that gives a 50% effect, or the effect in half of the subjects. Turning to `CC(C)(CN1CCOCC1)c1ccc(C(=O)c2ccccc2)cc1.Cl` [Example 24K, 4-[2,2-dimethyl-2-(4-benzoylphenyl)ethyl]morpholine hydrochloride], the inhibition in vivo at 80 µmol/kg in data set [1] (setting [5]) worked out at 19%. The inhibition in vivo at 324 µmol/kg worked out at 60% in data set [1] (setting [6]) and 7% in data set [2] (setting [7]). For the same compound, the ED50 in data set [3] (po) was 38 mg/kg.

Consider `CC(CN1CCCCC1C1CCCCC1)c1cccc(C(=O)c2ccccc2)c1` (stereo not drawn) [Example 7E, 2-Cyclohexyl-1-[2-(3-benzoylphenyl)propyl]piperidine], for which the values for the inhibition in vivo at 80 µmol/kg in data set [1] (setting [5]) and in data set [2] (setting [7]) were 33% and 92%, respectively. Moreover, in data set [1] (setting [6]), the inhibition in vivo at 324 µmol/kg amounted to 58%. Besides, the “Ach percent inhibition of writhing” value in data set [3] (dose 25, s.c.) turned out to be 46%; in data set [3] (dose 75, s.c.) it was 93%.

Consider `CC(CN1CCSCC1)c1ccc(C(=O)c2ccccc2)cc1` (stereo not drawn) [Example 24D, 4-[2-(4-benzoylphenyl)propy]thiomorpholine hydrochloride], for which the inhibition in vivo at 80 µmol/kg is 61% in data set [1] (setting [5]) and 28% in data set [2] (setting [7]). For the same compound, the inhibition in vivo at 324 µmol/kg in data set [1] (setting [6]) was 70%. The ED50 in data set [3] (po) amounted to 50 mg/kg.

Turning to `CC(C)(CN1CCC2(CC1)OCCO2)c1cccc(C(=O)c2ccccc2)c1.Cl` [Example 24J, 8-[2,2-dimethyl-2-(3-benzoylphenyl)ethyl]-1,4-dioxa-8-azaspiro[4,5]decane hydrochloride], the inhibition in vivo at 80 µmol/kg in data set [1] (setting [5]) turned out to be 6%. In addition, the inhibition in vivo at 324 µmol/kg in data set [1] (setting [6]) turned out to be 8%; in data set [2] (setting [7]), 36%. Further, the “Ach percent inhibition of writhing” value in data set [3] (dose 25, s.c.) came out at 33%; in data set [3] (dose 50, p.o.), 27%; in data set [3] (dose 150, p.o.), 53%.

As for `CC(CN1CCCCC1CC1CCCCC1)c1cccc(C(O)c2ccc(Cl)cc2)c1` (stereo not drawn) [Example 5, 2-cyclohexylmethyl-1-{2-[3-(α-hydroxy-4-chlorobenzyl)phenyl]propyl}piperidine], in data set [1] (setting [5]), the inhibition in vivo at 4 µmol/kg worked out at 14% and the inhibition in vivo at 20 µmol/kg was found to be 41%. Moreover, in data set [2] (setting [7]), the inhibition in vivo at 5 µmol/kg was 64%, the inhibition in vivo at 20 µmol/kg turned out to be 70% and the inhibition in vivo at 80 µmol/kg was found to be 88%. In addition, the MIC in data set [4] is 6 µg/mL (≈ 13.6 µM).

Regarding `CC(CN1CCC2(CC1)SCCS2)c1ccc(C(=O)c2ccccc2)cc1.Cl` (stereo not drawn) [Example 24E, 8-[2-(4-benzoylphenyl)propyl]-1,4-dithia-8-azaspiro[4,5]decane hydrochloride], in data set [3] (po), the ED50 came to 39 mg/kg.

Take `CC(CN1CCCCC1CC1CCCCC1)c1cccc(C(O)c2ccccc2)c1` (stereo not drawn) [Example 1, 2-cyclohexylmethyl-1-{2-[3-(α-hydroxybenzyl)phenyl]propyl}piperidine]: in data set [1] (setting [5]), the inhibition in vivo at 5 µmol/kg is 13%, the inhibition in vivo at 20 µmol/kg was determined as 23% and the inhibition in vivo at 80 µmol/kg was 60%. Further, the inhibition in vivo at 324 µmol/kg in data set [1] (setting [6]) stood at 73%. Besides, in data set [2] (setting [7]), the inhibition in vivo at 5 µmol/kg amounted to 56%, the inhibition in vivo at 20 µmol/kg was 73% and the inhibition in vivo at 80 µmol/kg worked out at 91%. The ED50 in data set [3] (po) stood at 71 mg/kg. Moreover, the “Ach percent inhibition of writhing” value in data set [3] (dose 25, s.c.) is on record as 7%. For the same compound, the “Ach percent inhibition of writhing” value in data set [3] (dose 75, s.c.) came out at 33%.

Take `CC(CN1CCNCC1)c1ccc(C(=O)c2ccccc2)cc1.Cl.Cl` (stereo not drawn) [Example 24C, 1-[2-(4-benzoylphenyl)propyl]piperazine dihydrochloride]: the inhibition in vivo at 80 µmol/kg in data set [1] (setting [5]) was 16%. For the same compound, the inhibition in vivo at 324 µmol/kg in data set [1] (setting [6]) was found to be 41%; in data set [2] (setting [7]) it was 63%. The ED50 in data set [3] (po) stood at 20 mg/kg.

Regarding `CC(CN1CCNCC1)c1cccc(C(=O)c2ccccc2)c1.Cl.Cl` (stereo not drawn) [Example 24G, 1-[2-(3-benzoylphenyl)propyl]piperazine dihydrochloride], the inhibition in vivo at 80 µmol/kg in data set [1] (setting [5]) stood at 32%. Moreover, the inhibition in vivo at 324 µmol/kg in data set [1] (setting [6]) was determined as 52%. Further, the ED50 in data set [3] (po) amounted to 30 mg/kg; in data set [3] (sc) it was 5.6 mg/kg.

For `CC1CCCC(C)N1CCc1cccc(C(O)c2ccccc2)c1` (stereo not drawn) [Example 1B, 2,6-Dimethyl-1-{2-[3-(α-hydroxybenzyl)phenyl]ethyl}piperidine], in data set [1] (setting [5]), the inhibition in vivo at 4 µmol/kg turned out to be 0%, the inhibition in vivo at 20 µmol/kg was 0% and the inhibition in vivo at 80 µmol/kg was determined as 13%. Besides, in data set [1] (dose 0.324 millimoles/kg), the “toxicity (entry in C.E. column)” value is reported as “Toxic”. Moreover, in data set [4], the MIC worked out at 50 µg/mL (≈ 155 µM).

Turning to `CC(CN1CCCCC1CC1CCCCC1)c1cccc(Cc2ccccc2)c1` (stereo not drawn) [Example 10, 2-cyclohexylmethyl-1-[2-(3-benzylphenyl)propyl]piperidine], in data set [1] (setting [5]), the inhibition in vivo at 5 µmol/kg came to 7%, the inhibition in vivo at 20 µmol/kg worked out at 26% and the inhibition in vivo at 80 µmol/kg amounted to 60%. In addition, in data set [2] (setting [7]), the inhibition in vivo at 5 µmol/kg is 25%, the inhibition in vivo at 20 µmol/kg was 63% and the inhibition in vivo at 80 µmol/kg came out at 91%. In addition, the MIC in data set [4] stood at 6 µg/mL (≈ 15.4 µM).

Take `CC(CN1CCC2(CC1)OCCS2)c1ccc(C(=O)c2ccccc2)cc1.Cl` (stereo not drawn) [Example 24F, 8-[2-(4-benzoylphenyl)propyl]-1-oxa-4-thia-8-azaspiro[4,5]decane hydrochloride]: the ED50 in data set [3] (po) worked out at 18 mg/kg.

For the compound `CC(CN1CCCCC1CCC1CCCCC1)c1cccc(C(=O)c2ccccc2)c1` (stereo not drawn) [Example 7F, 2-(2-Cyclohexylethyl)-1-[2-(3-benzoylphenyl)propyl]piperidine], the values for the inhibition in vivo at 80 µmol/kg in data set [1] (setting [5]) and in data set [2] (setting [7]) were 33% and 91%, respectively. In addition, the inhibition in vivo at 324 µmol/kg in data set [1] (setting [6]) was 51%. In data set [2] (dose 0.16 millimoles/kg), the “toxicity” value is reported as “Toxic”. Also, the “Ach percent inhibition of writhing” value in data set [3] (dose 25, s.c.) came out at 7%; in data set [3] (dose 75, s.c.), 33%.

For the compound `CC(CN1C(C)CCCC1C)c1cccc(C(=O)c2ccccc2)c1` (stereo not drawn) [Example 13, 2,6-dimethyl-1-[2-(3-benzoylphenyl)propyl]piperidine], the inhibition in vivo at 4 µmol/kg in data set [1] (setting [5]) turned out to be 0%; in data set [2] (dose 0.004 millimoles/kg, read-out: A.A. percent inhibition), 37%. Moreover, the inhibition in vivo at 15 µmol/kg in data set [1] (dose 0.015 millimoles/kg, read-out: C.E. percent inhibition) was 15%; in data set [2] (dose 0.015 millimoles/kg, read-out: A.A. percent inhibition), 52%. Also, the inhibition in vivo at 60 µmol/kg in data set [1] (dose 0.06 millimoles/kg, read-out: C.E. percent inhibition) was 37%; in data set [2] (dose 0.06 millimoles/kg, read-out: A.A. percent inhibition), 78%. For the same compound, in data set [1] (setting [5]), the inhibition in vivo at 80 µmol/kg is 54%. In addition, in data set [1] (setting [6]), the inhibition in vivo at 324 µmol/kg was 56%.

Take `CC(C)(CN1CCC2(CC1)OCCO2)c1ccc(C(=O)c2ccccc2)cc1.Cl` [Example 24L, 8-[2,2-dimethyl-2-(4-benzoylphenyl)ethyl]-1,4-dioxa-8-azaspiro[4,5]decane hydrochloride]: the inhibition in vivo at 80 µmol/kg in data set [1] (setting [5]) is 46%; in data set [2] (setting [7]), 24%. Besides, the inhibition in vivo at 324 µmol/kg in data set [1] (setting [6]) was 70%. Besides, the ED50 in data set [3] (po) was 60 mg/kg.
